From patent US20050181376A1, “Antisense modulation of microsomal triglyceride transfer protein expression” (ISIS Pharmaceuticals, Inc., priority 2001, published 2005) come the findings set out here.

Data set [1] concerns human microsomal triglyceride transfer protein mRNA.
Data set [2] shares this test system. As to the kind of experiment: Antisense inhibition of human microsomal triglyceride transfer protein mRNA levels, quantitative real-time PCR. Also: test concentration or dose not given here. The note with it: averages from two experiments.

Like-named read-outs stand apart in the source and are kept apart here. Strand notation (5' to 3'): a small letter for the sugar, then the base; units joined by * are phosphorothioate-linked, units joined directly phosphodiester-linked; [ ] holds rarer units or linkages, { } end groups; capitals alone tell only the bases. e = 2'-O-(2-methoxyethyl) (MOE); [5mC] = 5-methylcytosine; d = 2'-deoxy (DNA)

Turning to “GATGATTCAAAATGACGCTG (chemistry not given here) [ISIS 144444]”, the “% INHIB (inhibition of human microsomal triglyceride transfer protein mRNA levels)” value (from here on “% INHIB”) in data set [1] was “at least 30%”.

Consider “GTAGCATACTGCATATACCC (antisense eG*eT*eA*eG*e[5mC]*dA*dT*dA*d[5mC]*dT*dG*d[5mC]*dA*dT*dA*eT*eA*e[5mC]*e[5mC]*e[5mC]) [ISIS 144443]”, for which the “% INHIB” value in data set [2] is given as “at least 30%”.

For the sequence “TCAACTGCATCCAGTGCCCA (antisense eT*e[5mC]*eA*eA*e[5mC]*dT*dG*d[5mC]*dA*dT*d[5mC]*d[5mC]*dA*dG*dT*eG*e[5mC]*e[5mC]*e[5mC]*eA) [ISIS 144408]”, the “% INHIB” value in data set [2] was “at least 30%”.

“TCATATTGACCAGCAATCCT (antisense eT*e[5mC]*eA*eT*eA*dT*dT*dG*dA*d[5mC]*d[5mC]*dA*dG*d[5mC]*dA*eA*eT*e[5mC]*e[5mC]*eT) [ISIS 144409]”: in data set [2], the “% INHIB” value is on record as “at least 30%”.
